# Active and inactive are the calls of the source. No cut-off for these calls is given here.
# Experiments:
# Homo sapiens = species on record: Homo sapiens; assay: Concentration required for inhibitory activity against human PMNLs chemotaxis; assay type: functional, organism-based; conditions: PMNL
# [1] = Partition coefficient in n-octanol/phosphate buffer, at pH 7.4; assay type: physicochemical
# Cavia porcellus [2] = assay: In vivo inhibitory activity against LTB4-induced bronchoconstriction of guinea pig at dose of 5 mg/kg after 10 min of iv administration; Active; assay type: functional, organism-based; design: dose 5 mg/kg
# Cavia porcellus [3] = assay: In vivo inhibitory activity against LTB4-induced bronchoconstriction of guinea pig at dose of 5 mg/kg after 2 min of iv administration; Active; assay type: functional, organism-based; design: dose 5 mg/kg
# Cavia porcellus [4] = assay: In vivo inhibitory activity against LTB4-induced bronchoconstriction of guinea pig at dose of 5 mg/kg after 10 min of iv administration; relatively active; assay type: functional, organism-based; design: dose 5 mg/kg
# Cavia porcellus [5] = assay: In vivo inhibitory activity against LTB4-induced bronchoconstriction of guinea pig at dose of 40 mg/kg after 60 min of po administration; Active; assay type: functional, organism-based; design: dose 40 mg/kg
# Cavia porcellus [6] = assay: In vivo inhibitory activity against LTB4-induced bronchoconstriction of guinea pig at dose of 5 mg/kg after 30 min of iv administration; Active; assay type: functional, organism-based; design: dose 5 mg/kg
# Cavia porcellus [7] = assay: In vivo inhibitory activity against LTB4-induced bronchoconstriction of guinea pig at dose of 5 mg/kg after 2 min of iv administration; relatively active; assay type: functional, organism-based; design: dose 5 mg/kg
# Cavia porcellus [8] = assay: In vivo inhibitory activity against LTB4-induced bronchoconstriction of guinea pig at dose of 40 mg/kg after 60 min of po administration; relatively active; assay type: functional, organism-based; design: dose 40 mg/kg
IC50 (Homo sapiens),logD [1],Compound,Activity (Cavia porcellus [3]),further results
5 µM,,CCc1cc(C(C)=O)c(O)cc1OCc1cccc(C(=O)Nc2nc(CC(=O)O)cs2)c1,,
15 µM,,CCc1cc(C(C)=O)c(O)cc1OCc1cccc(C(=O)NCCO)n1,,
1 µM,0.7,CCc1cc(C(C)=O)c(O)cc1OCc1cccc(C(=O)NCCC(=O)O)n1,Active,Activity (Cavia porcellus [2]): Active
0.8 µM,1.1,CCc1cc(C(C)=O)c(O)cc1OCc1cccc(C(=O)Nc2cccc(CC(=O)O)n2)n1,,
0.7 µM,,CCc1cc(C(C)=O)c(O)cc1OCc1ccc(C(=O)Nc2nc(CC(=O)O)cs2)cn1,,
10 µM,0.6,CCc1cc(C(C)=O)c(O)cc1OCc1cncc(C(=O)Nc2nc(CC(=O)O)cs2)n1,Active,Activity (Cavia porcellus [4]): Weak activity
0.3 µM,0.1,CCc1cc(C(C)=O)c(O)cc1OCc1cccc(C(=O)N(CC)CCC(=O)O)n1,Active,Activity (Cavia porcellus [5]): Active; Activity (Cavia porcellus [2]): Active; Activity (Cavia porcellus [6]): Active
0.9 µM,-1.8,CCc1cc(C(C)=O)c(O)cc1OCc1cccc(C(=O)N[C@@H](CC(=O)O)C(=O)O)n1,,Activity (Cavia porcellus [4]): Weak activity; Activity (Cavia porcellus [7]): Weak activity
1 µM,2.8,CCc1cc(C(C)=O)c(O)cc1OCc1cccc(C(=O)N(CC)CCO)n1,Active,
0.3 µM,-0.3,CCc1cc(C(C)=O)c(O)cc1OCc1cccc(C(=O)N[C@@H](CO)C(=O)O)n1,Active,Activity (Cavia porcellus [8]): Weak activity; Activity (Cavia porcellus [2]): Active; Activity (Cavia porcellus [6]): Active
12 µM,,CCc1cc(C(C)=O)c(O)cc1OCc1cccc(C(=O)NCC(=O)O)n1,,
3 µM,,CCc1cc(C(C)=O)c(O)cc1OCc1nccc(C(=O)Nc2nc(CC(=O)O)cs2)n1,,
3.3 µM,,CCCc1c(OCCCOc2ccc(C(C)=O)c(OC)c2CCC)ccc2c1OC(C(=O)O)CC2 (stereo not drawn) [SC-41390],,
0.3 µM,1.9,CCc1cc(C(C)=O)c(O)cc1OCc1cccc(C(=O)Nc2nc(CC(=O)O)cs2)n1,,Activity (Cavia porcellus [4]): Weak activity
0.02 µM,0.8,CCc1cc(C(C)=O)c(O)cc1OCc1cccc(C(=O)Nc2cccc(CC(=O)O)[n+]2[O-])n1,Active,Activity (Cavia porcellus [2]): Active; Activity (Cavia porcellus [6]): Active
